This passage reports GI50 and TGI results from PubChem BioAssay (NCI).

Common to all, as to test: NCI tumour cell line growth inhibition, 48 h
Assay [1] deals with ACHN renal.
For assay [2], the system named is MDA-MB-435.
The test system of assay [3] is A549 NSCLC.
In assay [4] the test system is HCT-15 colon.
Assay [5] concerns RXF 393 renal.
For assay [6], the system named is CAKI-1 renal.
Assay [7] concerns A498 renal.
The test system of assay [8] is NCI-H522 lung.

“And” between values parts separate entries of the source, which are not always exact repeats. Equal entries are not always repeated.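 Briefly, cells in 96-well plates were exposed to five compound concentrations for 48 h, and endpoints were estimated by linear interpolation. GI50 is the concentration that inhibits growth by half. TGI: total growth inhibition.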

With `Cn1nccc1Nc1nccc(-c2cc3c(s2)C(C)(C)N(CCN2CCOCC2)C3=O)n1`, the GI50 in assay [1] was 9.53 µM; in assay [2], 0.852 µM; in assay [3] it was 5.27 µM; in assay [4], 16.9 µM; in assay [5], 4.73 µM; in assay [6] it was 6.66 µM. The GI50 in assay [7] is 0.659 µM; in assay [8], 14.9 µM. For the same molecule, the TGI in assay [1] is > 100 µM; in assay [2], > 100 µM; in assay [3] it was > 100 µM; in assay [4], > 100 µM; in assay [5], > 85.3 µM; in assay [6], > 100 µM. Further, the figures for the TGI in assay [7] and in assay [8] were 5.99 µM and > 100 µM, respectively.

In the case of `C=C1C(=O)O[C@H]2[C@H]1CC/C(COC(=O)CCCCC(=O)OC/C1=C/CC[C@@]3(C)O[C@H]3[C@H]3OC(=O)C(=C)[C@@H]3CC1)=C\CC[C@@]1(C)O[C@@H]21`, the GI50 in assay [2] was 2.39 µM; in assay [3] it was 58.2 µM; in assay [4] it was 1.73 µM; in assay [5] it was 0.967 µM; in assay [7], 11 µM; in assay [8] it was 1.76 µM. Also, the TGI in assay [2] is 8.04 µM; in assay [3] it was > 100 µM; in assay [4] it was 4.2 µM; in assay [5], 2.31 µM; in assay [7] it was > 100 µM; in assay [8], 3.57 µM.

For `Cc1cc(N2CCCCC2)nc(N(CCCNc2ccnc3cc(Cl)ccc23)Cc2ccco2)n1`, the GI50 in assay [1] was 3.3 µM; in assay [2] it was 1.65 µM; in assay [3] it was 3.34 µM; in assay [4], 1.62 µM; in assay [5], 1.52 µM; in assay [7] it was 2.66 µM. Besides, the GI50 in assay [8] is 2.63 µM. Moreover, the TGI in assay [1] turned out to be 12 µM; in assay [2] it was 3.68 µM; in assay [3], 11.2 µM; in assay [4], 4.88 µM; in assay [5] it was 3.44 µM; in assay [7], 9.39 µM. The same molecule came in with a TGI in assay [8] of 7.69 µM.

Turning to `O=c1cc(-c2cccc(C(F)(F)F)c2)[nH]c2cc3c(cc12)OCO3`, the GI50 was 30.5 µM in assay [1]; 0.175 µM in assay [2]; 0.521 µM in assay [3]; 0.4 µM in assay [4]; 1.47 µM in assay [7]. The TGI in assay [1] was 50 µM and > 100 µM; in assay [2] it was 1.95 µM and 0.366 µM; in assay [3], 50 µM; in assay [6], > 100 µM; in assay [7], 49.9 µM and 7 µM; in assay [8], > 100 µM.

For the molecule `CN(C)c1ccc(N2Cc3ccccc3OC3=C2C(=O)c2c(O)ccc(O)c2C3=O)cn1`, the GI50 in assay [1] was 0.158 µM; in assay [2], 0.237 µM; in assay [3], 2.32 µM; in assay [4] it was 0.178 µM; in assay [5], 0.152 µM; in assay [7], 2.15 µM. In assay [8], the GI50 was 0.0535 µM. Also, the TGI in assay [1] stood at 0.698 µM; in assay [2] it was 0.544 µM; in assay [3], 6.03 µM; in assay [4] it was 0.502 µM; in assay [5] it was 0.318 µM; in assay [7], 5.8 µM. In addition, the TGI in assay [8] turned out to be 0.217 µM.

Consider `Oc1ccccc1-c1nn(CNc2cccc(Cl)c2)c(=S)o1`, for which the GI50 in assay [2] was 77.1 µM; in assay [3], 74.8 µM; in assay [5], 82.4 µM; in assay [6], 65.4 µM; in assay [7] it was 60.1 µM; in assay [8], > 100 µM. Moreover, the TGI in assay [2], in assay [3], in assay [5], in assay [6], in assay [7] and in assay [8] was > 100 µM each time.

On to `CC1CC2(C)ON=C(c3ccccc3)N2c2ccccc2S1` (centres undefined), for which the GI50 in assay [1] was 32.8 µM; in assay [2] it was 26 µM; in assay [3], 34.3 µM; in assay [4], 44.6 µM; in assay [6] it was 78.6 µM; in assay [7] it was 34.7 µM. The GI50 in assay [8] was 27.5 µM. For the same molecule, the TGI in assay [2] stood at 93.3 µM; in assay [8], 65.5 µM.

Regarding `COc1ccc2c(c1)c(-c1ccc(-c3cn(S(=O)(=O)c4ccccc4)c4ccc(OC)cc34)s1)cn2S(=O)(=O)c1ccccc1`, the GI50 in assay [1], in assay [2], in assay [3], in assay [4], in assay [6] and in assay [7] was > 100 µM in each case. Further, in assay [8], the GI50 was > 100 µM. The TGI in assay [1], in assay [2], in assay [3], in assay [4], in assay [6] and in assay [7] was > 100 µM in each case. Moreover, the TGI in assay [8] is > 100 µM.

Regarding `COc1cc2nc3sc(C(=O)Nc4ccc(C(=O)OC(C)C)cc4)c(C(=O)Nc4ccc(Cl)cc4C)n3c(=O)c2cc1OC`, the GI50 in assay [1] is 23.8 µM; in assay [2], 9.11 µM; in assay [3] it was 0.824 µM; in assay [4] it was 17.3 µM; in assay [6] it was 26.1 µM; in assay [7], 4.69 µM. Further, the TGI is > 100 µM in assay [1]; > 100 µM in assay [2]; > 100 µM in assay [3]; > 100 µM in assay [4]; > 100 µM in assay [6]; 26.3 µM in assay [7].

On to `COc1cc2nc(-c3cnc(N(C)C)nc3)nc(NC3CCN(Cc4ccccc4)CC3)c2cc1OC`, for which the GI50 was 0.927 µM in assay [1]; 1.38 µM in assay [2]; 0.351 µM in assay [3]; 1.01 µM in assay [4]; 1.63 µM in assay [5]; 1.44 µM in assay [6]. In addition, in assay [7], the GI50 is 1.57 µM. For the same molecule, the TGI in assay [1] came to 2.17 µM; in assay [2], 2.81 µM; in assay [3] it was 1.79 µM; in assay [4] it was 2.39 µM; in assay [5] it was 3.49 µM; in assay [6] it was 2.81 µM. Moreover, the TGI in assay [7] is 2.94 µM.

Regarding `Cc1nc(Cl)nc(Cl)c1C`, the TGI in assay [1], in assay [2], in assay [3], in assay [4], in assay [5] and in assay [8] was > 100 µM throughout.
